US7669997B2, “Ink-jet textile printing method” (Konica Minolta Holdings, Inc., priority 2004, dated 2010)

Assay: pKa (acid dissociation constant) of dispersing agents and acids
Assay type: physicochemical
Conditions: acid of pretreatment solution
From the text: The pKa value, as described in the present invention, is also called an acid dissociation constant, which is detailed, for example, in Buichi Sakaguchi and Keihei Ueno, Kinzoku Chelates [III] (Metal Chelates [III]), Nanko Do, which describes pKa values of acidic dissociating groups. Further, it is possible to determine the pKa of compounds, which are not described in the above reference, employing conventional methods. For example, it is possible to determine the pKa employing the method described, for example, in Jikken Kagaku Koza 5 Netsuteki Sokutei oyobi Heiko (Experimental Chemistry Lecture 5 Thermal Measurements and Equilibrium) page 460, edited by Nihon Kagaku Kai, Maruzen Co., Ltd.

- pKa (first listed pKa value): < 2
- pKa (second listed pKa value): 5.8
Compound: O=C(O)/C=C\C(=O)O [maleic acid]
